This note sets out measurements from patent US10624972B2, “Conjugates for treating diseases” (priority 2015, dated 2020).

Molecules are shown by their SMILES. Like-named read-outs stand apart in the source and are kept apart here. *1 amine or outer side, *2 acyl side, *3 side chain or, on linkers, in order; H or OH if unused. Where a SMILES comes first, the peptide text is derived from it. The star is where a group is joined. X1 = COc1ccc(C2=CN(C(=O)c3cc(OC)c(OC)cc3N)[C@H](C3OCCN3C(=O)OCCS*)C2)cc1; X2 = COc1cc(N)c(C(=O)N2c3ccccc3C[C@H]2C2OCCN2C(=O)OCc2ccc(S*)cc2)cc1OC; Pteroyl = Nc1nc2ncc(CNc3ccc(C(=O)*)cc3)nc2c(=O)[nH]1; γGlu = O=C(O)[C@H](CCC(=O)[*:2])N[*:1] Where only a bound is given, the exact number is not on record here.

Series [1] has as its system KB cells. Description: cells. Type of series: cell-based, Human. As to the method: METHOD. Inhibition of Cellular DNA Synthesis. The conjugates described herein were evaluated using an in vitro cytotoxicity assay that predicted the ability of the drug to inhibit the growth of the corresponding targeted cells, such as, but not limited to the following
It is to be understood that the choice of cell type can be made on the basis of the susceptibility of those selected cells to the drug that forms the conjugate, and the relative expression of the cell surface receptor or target antigen. The test conjugates were conjugates of a cell surface receptor or target antigen binding compound and PBD prodrugs, poly-PBD prodrugs, and mixed PBDs, as described herein. The test cells were exposed to varying concentrations of the conjugates, and optionally also in the absence or presence of at least a 100-fold excess of the unconjugated cell surface receptor or target antigen binding compound for competition studies to assess activity as being specific to the cell surface receptor or target antigen.
EXAMPLE. Conjugates of PBD prodrugs, poly-PBD prodrugs, and mixed PBDs described herein were active against KB cells. The activity was mediated by the folate receptor as indicated by competition experiments using co-administered folic acid. KB cells were exposed for up to 7 h at 37° C. to the indicated concentrations of folate-drug conjugate in the absence or presence of at least a 100-fold excess of folic acid. The cells were then rinsed once with fresh culture medium and incubated in fresh culture medium for 72 hours at 37° C. Cell viability was assessed using a ^3H-thymidine incorporation assay. For conjugates described herein, dose-dependent cytotoxicity was generally measurable, and in most cases, the IC50 values (concentration of drug conjugate required to reduce ^3H-thymidine incorporation into newly synthesized DNA by 50%) were in the low nanomolar range.

Series [2] can be described thus: Toxicity as measured by weight loss (test animal total body weight). Format: in vivo, mice. Particulars: KB tumor study. As to the method:
METHOD. Toxicity as Measured by Weight Loss. The percentage weight change of the test animals was determined on selected days post-tumor inoculation (PTI), and during dosing. The results were graphed.

Setting [3] is: Homo sapiens, KB cells, 3H-thymidine incorporation, read-out: IC50 KB Cells.
[4] abbreviates: Homo sapiens, KB cells, co-administered with dithiothreitol (DTT), read-out: IC50 KB Cells.

Broadly, the IC50 is the concentration that inhibits the measured activity by half. As for `COc1ccc(C2=CN(C(=O)c3cc(OC)c(OC)cc3N)[C@H](C3OCCN3C(=O)OCCSSc3ccccn3)C2)cc1` (some centres unmarked) [EC1628], the figures for the IC50 in series [1] (setting [3]) and in series [1] (setting [4]) were 383 nM and 11 nM, respectively.

For `COc1ccc(C2=CN(C(=O)c3cc(OC)c(OC)cc3N)[C@H](C3OCCN3C(=O)OCCSSC[C@H](NC(=O)[C@H](CC(=O)O)NC(=O)[C@H](CC(=O)O)NC(=O)[C@H](CCCNC(=N)N)NC(=O)[C@H](CC(=O)O)NC(=O)CC[C@H](NC(=O)c3ccc(NCc4cnc5nc(N)[nH]c(=O)c5n4)cc3)C(=O)O)C(=O)O)C2)cc1` (some centres unmarked) [EC1629] ({Pteroyl-γGlu}-DRDDC(X1)-OH), in series [2] (2 μmol/kg TIW for two weeks), the “toxicity as evidenced by test animal total body weight” value (from here on “toxicity as evidenced”) is on record as “Toxicity was not observed”.

`COc1cc(N)c(C(=O)N2c3ccccc3C[C@H]2C2OCCN2C(=O)OCc2ccc(SSC[C@H](NC(=O)[C@H](CC(=O)O)NC(=O)[C@H](CC(=O)O)NC(=O)[C@H](CCCNC(=N)N)NC(=O)[C@H](CC(=O)O)NC(=O)CC[C@H](NC(=O)c3ccc(NCc4cnc5nc(N)[nH]c(=O)c5n4)cc3)C(=O)O)C(=O)O)cc2)cc1OC` (some centres unmarked) [EC1673] ({Pteroyl-γGlu}-DRDDC(X2)-OH): the IC50 in series [1] was at least 1000 nM.

Take `C=C1C[C@@H](C2OCCN2C(=O)OCCSSc2ccccn2)N(C(=O)c2cc(OC)c(OCCCCCOc3cc(N)c(C(=O)N4CC(=C)C[C@H]4C4OCCN4C(=O)OCCSSc4ccccn4)cc3OC)cc2N)C1` (some centres unmarked) [EC1695]: the 50% inhibitory concentration (IC50) was at least 100 nM in series [1] (setting [3]) and 1 nM in series [1] (setting [4]).

In series [1] (3 h), `C=C1C[C@@H](C2OCCN2C(=O)OCc2ccc(SSC[C@H](NC(=O)[C@H](CC(=O)O)NC(=O)[C@H](CC(=O)O)NC(=O)[C@H](CCCNC(=N)N)NC(=O)[C@H](CC(=O)O)NC(=O)CC[C@H](NC(=O)c3ccc(NCc4cnc5nc(N)[nH]c(=O)c5n4)cc3)C(=O)O)C(=O)O)cc2)N(C(=O)c2cc(OC)c(OCCCCCOc3cc(N)c(C(=O)N4CC(=C)C[C@H]4C4OCCN4C(=O)OCc4ccc(SSC[C@H](NC(=O)[C@H](CC(=O)O)NC(=O)[C@H](CC(=O)O)NC(=O)[C@H](CCCNC(=N)N)NC(=O)[C@H](CC(=O)O)NC(=O)CC[C@H](NC(=O)c5ccc(NCc6cnc7nc(N)[nH]c(=O)c7n6)cc5)C(=O)O)C(=O)O)cc4)cc3OC)cc2N)C1` (some centres unmarked) [EC1704] yielded an IC50 of 0.46 nM.

In series [1] (3 h), `C=C1C[C@H]2C(=O)Nc3cc(OCCCCCOc4cc(N)c(C(=O)N5CC(=C)C[C@H]5C5OCCN5C(=O)OCCCSC[C@H](NC(=O)[C@H](CC(=O)O)NC(=O)[C@H](CC(=O)O)NC(=O)[C@H](CCCNC(=N)N)NC(=O)[C@H](CC(=O)O)NC(=O)CC[C@H](NC(=O)c5ccc(NCc6cnc7nc(N)[nH]c(=O)c7n6)cc5)C(=O)O)C(=O)O)cc4OC)c(OC)cc3C(=O)N2C1` (some centres unmarked) [EC1772] yielded an IC50 of 0.33 nM.

For `C=C1C[C@H]2C=Nc3cc(OCCCCCOc4cc(N)c(C(=O)N5CC(=C)C[C@H]5C5OCCN5C(=O)OCCSSC[C@H](NC(=O)[C@H](CC(=O)O)NC(=O)[C@H](CC(=O)O)NC(=O)[C@H](CCCNC(=N)N)NC(=O)[C@H](CC(=O)O)NC(=O)CC[C@H](NC(=O)c5ccc(NCc6cnc7nc(N)[nH]c(=O)c7n6)cc5)C(=O)O)C(=O)O)cc4OC)c(OC)cc3C(=O)N2C1` (some centres unmarked) [EC1788], in series [1] (KB cells, 3H-thymidine incorporation, read-out: IC50 KB Cells), the IC50 came out at 0.18 nM. For the same molecule, the “toxicity as evidenced” value in series [2] (0.2 μmol/kg TIW for two weeks) and in series [2] (0.4 μmol/kg BIW for 2 weeks) was “Minor toxicity was observed” in each case.

Take `C=C1C[C@@H](C2OCCN2C(=O)OCCSSC[C@@H](NC(=O)[C@H](CCC(=O)NC[C@H](O)[C@@H](O)[C@H](O)[C@H](O)CO)NC(=O)[C@@H](CCC(=O)O)NC(=O)[C@H](CCC(=O)NC[C@H](O)[C@@H](O)[C@H](O)[C@H](O)CO)NC(=O)[C@@H](CCC(=O)O)NC(=O)[C@H](CCC(=O)NC[C@H](O)[C@@H](O)[C@H](O)[C@H](O)CO)NC(=O)CC[C@H](NC(=O)c2ccc(NCc3cnc4nc(N)[nH]c(=O)c4n3)cc2)C(=O)O)C(=O)O)N(C(=O)c2cc(OC)c(OCCCCCOc3ccc(-c4nc5ccc(-c6nc7cc(N8CCN(C)CC8)ccc7[nH]6)cc5[nH]4)cc3)cc2N)C1` (some centres unmarked) [EC1879]: half-maximal inhibition in series [1] (3 h) (IC50) was put at 0.56 nM. The entries for the “toxicity as evidenced” value in series [2] (2 μmol/kg TIW for 1 week) and in series [2] (2 μmol/kg TIW for two weeks) were “Minor toxicity was observed” and “Toxicity was not observed”, respectively.

On to `C=C1C[C@@H](C2OCCN2C(=O)OCc2ccc(NC(=O)[C@H](C)NC(=O)[C@@H](NC(=O)CCCCCN3C(=O)CC(SC[C@@H](NC(=O)[C@H](CCC(=O)NC[C@H](O)[C@@H](O)[C@H](O)[C@H](O)CO)NC(=O)[C@@H](CCC(=O)O)NC(=O)[C@H](CCC(=O)NC[C@H](O)[C@@H](O)[C@H](O)[C@H](O)CO)NC(=O)[C@@H](CCC(=O)O)NC(=O)[C@H](CCC(=O)NC[C@H](O)[C@@H](O)[C@H](O)[C@H](O)CO)NC(=O)CC[C@H](NC(=O)c4ccc(NCc5cnc6nc(N)[nH]c(=O)c6n5)cc4)C(=O)O)C(=O)O)C3=O)C(C)C)cc2)N(C(=O)c2cc(OC)c(OCCCCCOc3cc(N)c(C(=O)N4CC(=C)C[C@H]4C4OCCN4C(=O)OCC4c5ccccc5-c5ccccc54)cc3OC)cc2N)C1` (some centres unmarked) [EC1911], for which the half-inhibitory concentration (IC50) in series [1] (3 h) is 0.7 nM.

In series [1] (3 h), `C=C1C[C@@H](C2OCCN2C(=O)OCCSSC[C@@H](NC(=O)[C@H](CCC(=O)NC[C@H](O)[C@@H](O)[C@H](O)[C@H](O)CO)NC(=O)[C@@H](CCC(=O)O)NC(=O)[C@H](CCC(=O)NC[C@H](O)[C@@H](O)[C@H](O)[C@H](O)CO)NC(=O)[C@@H](CCC(=O)O)NC(=O)[C@H](CCC(=O)NC[C@H](O)[C@@H](O)[C@H](O)[C@H](O)CO)NC(=O)CC[C@H](NC(=O)c2ccc(NCc3cnc4nc(N)[nH]c(=O)c4n3)cc2)C(=O)O)C(=O)O)N(C(=O)c2cc(OC)c(OCCCCCOc3cc(N)c(C(=O)N4CC(=C)C[C@H]4C4OCCN4C(=O)OCCSSc4ccccn4)cc3OC)cc2N)C1` (some centres unmarked) [EC1949] showed a 50% inhibitory concentration (IC50) of 1.49 nM.

Take `C=C1C[C@H]2C(=O)Nc3cc(OCCCCCOc4cc(N)c(C(=O)N5CC(=C)C[C@H]5C5OCCN5C(=O)OCc5ccc(NC(=O)[C@H](C)NC(=O)[C@@H](NC(=O)CCOCCOCCOCCOCCNC(=O)CCN6C(=O)CC(SC[C@@H](NC(=O)[C@H](CCC(=O)NC[C@H](O)[C@@H](O)[C@H](O)[C@H](O)CO)NC(=O)[C@@H](CCC(=O)O)NC(=O)[C@H](CCC(=O)NC[C@H](O)[C@@H](O)[C@H](O)[C@H](O)CO)NC(=O)[C@@H](CCC(=O)O)NC(=O)[C@H](CCC(=O)NC[C@H](O)[C@@H](O)[C@H](O)[C@H](O)CO)NC(=O)CC[C@H](NC(=O)c7ccc(NCc8cnc9nc(N)[nH]c(=O)c9n8)cc7)C(=O)O)C(=O)O)C6=O)C(C)C)cc5)cc4OC)c(OC)cc3C(=O)N2C1` (some centres unmarked) [EC2074]: the IC50 in series [1] (3 h) came out at 3.6 nM.

For the molecule `C=C1C[C@@H](C2OCCN2C(=O)OCc2ccc(NC(=O)[C@H](C)NC(=O)[C@@H](NC(=O)CCOCCOCCOCCOCCNC(=O)CCN3C(=O)CC(SC[C@@H](NC(=O)[C@H](CCC(=O)NC[C@H](O)[C@@H](O)[C@H](O)[C@H](O)CO)NC(=O)[C@@H](CCC(=O)O)NC(=O)[C@H](CCC(=O)NC[C@H](O)[C@@H](O)[C@H](O)[C@H](O)CO)NC(=O)[C@@H](CCC(=O)O)NC(=O)[C@H](CCC(=O)NC[C@H](O)[C@@H](O)[C@H](O)[C@H](O)CO)NC(=O)CC[C@H](NC(=O)c4ccc(NCc5cnc6nc(N)[nH]c(=O)c6n5)cc4)C(=O)O)C(=O)O)C3=O)C(C)C)cc2)N(C(=O)c2cc(OC)c(OCCCCCOc3ccc(-c4nc5ccc(-c6nc7cc(N8CCN(C)CC8)ccc7[nH]6)cc5[nH]4)cc3)cc2N)C1` (some centres unmarked) [EC2080], in series [1] (3 h), the IC50 worked out at 0.2 nM.

As to `C=C1C[C@@H](C2OCCN2C(=O)OCC2c3ccccc3-c3ccccc32)N(C(=O)c2cc(OC)c(OCCCCCOc3cc(NC(=O)OCc4ccc(NC(=O)[C@H](C)NC(=O)[C@@H](NC(=O)CCOCCOCCOCCOCCNC(=O)CCN5C(=O)CC(SC[C@@H](NC(=O)[C@H](CCC(=O)NC[C@H](O)[C@@H](O)[C@H](O)[C@H](O)CO)NC(=O)[C@@H](CCC(=O)O)NC(=O)[C@H](CCC(=O)NC[C@H](O)[C@@H](O)[C@H](O)[C@H](O)CO)NC(=O)[C@@H](CCC(=O)O)NC(=O)[C@H](CCC(=O)NC[C@H](O)[C@@H](O)[C@H](O)[C@H](O)CO)NC(=O)CC[C@H](NC(=O)c6ccc(NCc7cnc8nc(N)[nH]c(=O)c8n7)cc6)C(=O)O)C(=O)O)C5=O)C(C)C)cc4)c(C(=O)N4CC(=C)C[C@H]4C4OCCN4C(=O)OCC4c5ccccc5-c5ccccc54)cc3OC)cc2N)C1` (some centres unmarked) [EC2103], the IC50 in series [1] (3 h) came to 3.5 nM.

With `C=C1C[C@@H](C2OCCN2C(=O)OCc2ccc(NC(=O)[C@H](C)NC(=O)[C@@H](NC(=O)CCOCCOCCOCCOCCNC(=O)CCN3C(=O)CC(SC[C@@H](NC(=O)[C@H](CCC(=O)NC[C@H](O)[C@@H](O)[C@H](O)[C@H](O)CO)NC(=O)[C@@H](CCC(=O)O)NC(=O)[C@H](CCC(=O)NC[C@H](O)[C@@H](O)[C@H](O)[C@H](O)CO)NC(=O)[C@@H](CCC(=O)O)NC(=O)[C@H](CCC(=O)NC[C@H](O)[C@@H](O)[C@H](O)[C@H](O)CO)NC(=O)CC[C@H](NC(=O)c4ccc(NCc5cnc6nc(N)[nH]c(=O)c6n5)cc4)C(=O)O)C(=O)O)C3=O)C(C)C)cc2)N(C(=O)c2cc(OC)c(OCCCCCOc3cc(N)c(C(=O)N4CC(=C)C[C@H]4C4OCCN4C(=O)OCc4ccc([N+](=O)[O-])cc4)cc3OC)cc2N)C1` (some centres unmarked) [EC2127], in series [1] (3 h), half-maximal inhibition (IC50) required 1.34 nM.
